Tested on: p65 and p50
Experiment: Nuclear translocation of p65 and p50 in BV-2 microglial cells (Western blot)
Assay type: cell-based
Conditions: 10 μM peptide 1 h, 1 μM fibrillar Aβ1-42
Method: FIG. 15 (A-F). Effect of wtTIDM peptide on fibrillar Aβ- and LPS-induced nuclear translocation of p65 and p50 in microglial cells. BV-2 microglial cells preincubated with 10 μM wtTIDM peptide for 1 h were stimulated with either 1 μM fibrillar Aβ1-42 (A-C) or 1 μg/ml LPS (D-F) under serum-free condition. At different minute intervals, levels of p65 and p50 (A, fibrillar Aβ; D, LPS) were monitored in nuclear extracts by Western blot. Histone H3 was run as a loading control. Bands were scanned and values of p65/H3 (B & E) and p50/H3 (C & F) are presented as relative to control (n=2 replicates/condition in 3 independent experiments). ap<0.05, bp<0.001 vs control; cp<0.01 vs 30 min stimulation; dp<0.05 vs 15 min stimulation; NS, not significant by two-sample t-tests.

## CC[C@H](C)[C@H](NC(=O)[C@H](CCCCN)NC(=O)[C@@H](NC(=O)[C@H](CCC(N)=O)NC(=O)[C@H](CCCNC(=N)N)NC(=O)[C@@H](N)CC(=O)O)[C@@H](C)CC)C(=O)N[C@@H](Cc1c[nH]c2ccccc12)C(=O)N[C@@H](Cc1ccccc1)C(=O)N[C@@H](CCC(N)=O)C(=O)N[C@@H](CC(N)=O)C(=O)N[C@@H](CCCNC(=N)N)C(=O)N[C@@H](CCCNC(=N)N)C(=O)N[C@@H](CCSC)C(=O)N[C@@H](CCCCN)C(=O)N[C@@H](Cc1c[nH]c2ccccc12)C(=O)N[C@@H](CCCCN)C(=O)N[C@@H](CCCCN)C(=O)N1CCC[C@H]1C(=O)NCC(=O)N[C@@H](C)C(=O)N[C@@H](Cc1c[nH]cn1)C(=O)N[C@@H](CCC(N)=O)C(=O)N[C@@H](CCCCN)C(=O)O [wtTIDM, drqikiwfqnrrmkwkkPGAHQK]
  inhibition of nuclear translocation of p65 and p50, fibrillar Aβ1-42: inhibited
